Results taken from patent publication EP4603105A1, “PHARMACEUTICAL COMPOSITION CONTAINING CYCLIC COMPOUND HAVING SELECTIVE KRAS INHIBITORY EFFECT AGAINST HRAS AND NRAS” (CHUGAI SEIYAKU KABUSHIKI KAISHA, priority 2022, dated 2024).
Read-outs that look alike come from different tables or passages of the source.

Columns and labels:
[1] = biological target: GDP-bound KRAS wild-type protein (Homo sapiens, UniProt P01116); assay: Binding to KRAS by surface plasmon resonance (SPR), dissociation constant KD
Summary of the method: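 GDP-loaded biotinylated Avi-tag RAS proteins (E. coli-expressed) captured on a Biotin CAPture chip at ~100–300 RU; single-cycle kinetics at 30°C, 100 µL/min, 75 s injections of rising compound concentrations. HBS pH 7.4 running buffer with 1 mM DTT, 10 mM MgCl2, 10 µM GDP, 4% DMSO. KD from 1:1 binding fit.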

[2] = system: human lung cancer strain NCI-H441; assay: NCI-H441 cell proliferation inhibitory activity (CellTiter-Glo, 4 days); type: cell-based; settings: read-out: NCl-H441 IC50
Summary of the method: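 Signal came from […] measured per well once the reagent was added. Beforehand, cells were cultured at 37°C and 5% carbon dioxide on a compound series serially diluted in dimethyl sulfoxide.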

[3] = biological target: GDP-bound NRAS wild-type protein (Homo sapiens, UniProt P01111); assay: Binding to NRAS by surface plasmon resonance (SPR), KD and KD ratio to KRAS
Summary of the method: (§1)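 Measured at 30°C: SPR with GDP-loaded, E. coli-expressed biotin-Avi RAS captured (~100–300 RU), ascending 75 s compound injections, HBS pH 7.4 with GDP, MgCl2, 4% DMSO. KD from 1:1 fit.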

HRAS wild-type protein = HRAS wild-type protein (Homo sapiens, UniProt P01112); assay: Binding to HRAS by surface plasmon resonance (SPR), KD and KD ratio to KRAS
Summary of the method: as §1

[4] = ratio of KD for GDP-bound NRAS wild-type protein to KD for KRAS
[5] = ratio of KD for HRAS wild-type protein to KD for KRAS
[6] = Single Cycle Kinetics, 1:1 binding model
[7] = 50% proliferation inhibitory concentration, four days
[8] = ratio of KD with respect to GDP-bound NRAS wild-type protein to KD with respect to KRAS
[9] = ratio of KD with respect to HRAS wild-type protein to KD with respect to KRAS

Chain of HRAS wild-type protein (P01112 whole entry): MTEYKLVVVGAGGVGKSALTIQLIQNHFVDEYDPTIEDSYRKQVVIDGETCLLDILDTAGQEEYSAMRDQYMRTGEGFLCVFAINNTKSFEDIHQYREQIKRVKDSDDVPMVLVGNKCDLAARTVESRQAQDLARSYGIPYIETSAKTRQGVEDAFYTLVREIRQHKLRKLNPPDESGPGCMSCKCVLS
Chain of GDP-bound NRAS wild-type protein (P01111 whole entry): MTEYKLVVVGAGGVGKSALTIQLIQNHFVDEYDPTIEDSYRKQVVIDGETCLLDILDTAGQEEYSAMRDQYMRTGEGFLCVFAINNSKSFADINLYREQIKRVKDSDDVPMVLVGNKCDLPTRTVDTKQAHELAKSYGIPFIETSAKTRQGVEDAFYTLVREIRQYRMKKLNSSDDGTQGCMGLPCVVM
Chain of GDP-bound KRAS wild-type protein (P01116 1-188 isoform P01116-2): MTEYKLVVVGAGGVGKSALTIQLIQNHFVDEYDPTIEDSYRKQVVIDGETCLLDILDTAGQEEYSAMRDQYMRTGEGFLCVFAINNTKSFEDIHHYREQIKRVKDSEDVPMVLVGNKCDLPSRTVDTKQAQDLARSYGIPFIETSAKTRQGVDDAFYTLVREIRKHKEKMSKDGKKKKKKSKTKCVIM

| Compound | Kd ([1]; Single Cycle Kinetics) | IC50 ([2]; NCI-H441 cells, 4 days) | NRAS /KRAS [3, 4] | HRAS /KRAS (HRAS wild-type protein; [5]) | Kd [1, 6] | IC50 [2, 7] | NRAS /KRAS [3, 8] | HRAS /KRAS (HRAS wild-type protein; [9]) | Kd ([1]; 1:1 binding model) |
| --- | --- | --- | --- | --- | --- | --- | --- | --- | --- |
| CCC[C@H]1C(=O)N[C@@H]([C@@H](C)CC)C(=O)N(C2CC2)CC(=O)N(C)[C@H]2C/C=C\CCN(C2=O)[C@@H](Cc2ccc(C(F)(F)F)cc2)C(=O)N(C)CC(=O)N[C@@H](CCc2ccc(C(F)(F)F)c(Cl)c2)C(=O)N2CC[C@H](OC)[C@H]2C(=O)N(C)C2(CCC2)C(=O)N(C)[C@@H](C2CCCC2)C(=O)N(C)[C@H](C(=O)N(C)C)CC(=O)N1C [PP3288] | 0.21 nM | 6.9 nM | A (a compound having 10 or more and less than 20 is denoted as A) | A (a compound having 10 or more and less than 20 is denoted as A) | – | – | – | – | – |
| CCO[C@@H]1C[C@H]2C(=O)NC3(CCC3)C(=O)N(C)[C@@H](C3CCCC3)C(=O)N(C)[C@H](C(=O)N(C)C)CC(=O)N(C)[C@@H](CC(C)C)C(=O)N[C@@H]([C@@H](C)CC)C(=O)N(C)CC(=O)N(C)[C@H]3C/C(F)=C\CCN(C3=O)[C@@H](Cc3ccc(C(F)(F)F)cc3)C(=O)N(C)CC(=O)N[C@@H](CCc3cc(F)c(C(F)(F)F)c(F)c3)C(=O)N2C1 [PP3514] | 0.17 nM | 12.2 nM | B (a compound having 3 or more and less than 10 is denoted as B) | B (a compound having 3 or more and less than 10 is denoted as B) | – | – | – | – | – |
| C#CC[C@H]1C(=O)N[C@@H]([C@@H](C)CC)C(=O)N(C)CC(=O)N(C)[C@H]2CC[C@@H](C)CN(C2=O)[C@@H](Cc2ccc(C(F)(F)F)cc2)C(=O)N(C)CC(=O)N[C@@H](CCc2ccc(C(F)(F)F)c(Cl)c2)C(=O)N2CCC[C@H]2C(=O)NC2(CCCC2)C(=O)N(C)[C@@H](C2CCCC2)C(=O)N(C)[C@H](C(=O)N(C)C)CC(=O)N1C [PP1340] | – | – | – | – | 0.081 nM | 10.9 nM | B (a compound having 3 or more and less than 10 is denoted as B) | B (a compound having 3 or more and less than 10 is denoted as B) | – |
| CCC[C@H]1C(=O)N[C@@H]([C@@H](C)CC)C(=O)N(C)CC(=O)N(C)[C@H]2C/C=C\CCN(C2=O)[C@@H](Cc2ccc(C(F)(F)F)cc2)C(=O)N(C)CC(=O)N[C@@H](CCc2ccc3sccc3c2)C(=O)N2C[C@H](OCC)C[C@H]2C(=O)NC2(CCC2)C(=O)N(C)[C@@H](C2CCCC2)C(=O)N(C)[C@H](C(=O)N(C)C)CC(=O)N1C [PP1256] | – | – | – | – | 0.36 nM | 69 nM | A (a compound having 10 or more and less than 20 is denoted as A) | A (a compound having 10 or more and less than 20 is denoted as A) | – |
| CCC(CC)[C@H]1C(=O)N(C)[C@H](C(=O)N(C)C)CC(=O)N(C)[C@@H](COC)C(=O)N[C@@H]([C@@H](C)CC)C(=O)N(C2CC2)CC(=O)N(C)[C@H]2C/C=C\CCN(C2=O)[C@@H](Cc2ccc(C)cc2)C(=O)N(C)CC(=O)N[C@@H](CCc2ccc(Cl)c(Cl)c2)C(=O)N2C[C@H](OC(C)C)C[C@H]2C(=O)NC2(CC(C)(C)C2)C(=O)N1C [PP2509] | – | 91.3 nM | AA (a compound having 20 or more is denoted as AA) | A (a compound having 10 or more and less than 20 is denoted as A) | – | – | – | – | 2.6 nM |
| CCC[C@H]1C(=O)N[C@@H](C2CCCC2)C(=O)N(C)CC(=O)N(C)[C@H]2C/C=C\CCN(C2=O)[C@@H](Cc2ccc(C(F)(F)F)cc2)C(=O)N(C)CC(=O)N[C@@H](CCc2ccc(C(F)(F)F)c(OC)c2)C(=O)N2CC3(CC3)C[C@H]2C(=O)N(C)C2(CCC2)C(=O)N(C)[C@@H](CC(C)(C)C)C(=O)N(C)[C@H](C(=O)N(C)C)CC(=O)N1C [PP3317] | 0.069 nM | 2.5 nM | B (a compound having 3 or more and less than 10 is denoted as B) | B (a compound having 3 or more and less than 10 is denoted as B) | – | – | – | – | – |
| C=CC[C@H]1C(=O)N(C)[C@H](C(=O)N(C)C)CC(=O)N(C)[C@@H](CC(C)C)C(=O)N[C@@H]([C@@H](C)CC)C(=O)N(C)CC(=O)N(C)[C@H]2C/C=C\CCN(C2=O)[C@@H](Cc2ccc(C)cc2)C(=O)N(C)CC(=O)N[C@@H](CCc2cc(F)c(C(F)(F)F)c(F)c2)C(=O)N2C[C@H](OCC)C[C@H]2C(=O)N(C)C2(CCC2)C(=O)N1C [PP3348] | 1.4 nM | 25.4 nM | A (a compound having 10 or more and less than 20 is denoted as A) | A (a compound having 10 or more and less than 20 is denoted as A) | – | – | – | – | – |
| CCC[C@H]1C(=O)N[C@@H]([C@@H](C)CC)C(=O)N2CCC[C@H]2C(=O)N(C)[C@H]2C/C=C\CCN(C2=O)[C@@H](Cc2ccc(C)cc2)C(=O)N(C)CC(=O)N[C@@H](CCc2ccc(C(F)(F)F)c(Cl)c2)C(=O)N2CC[C@H](OC)[C@H]2C(=O)N(C)C2(CCC2)C(=O)N(C)[C@@H](C2CCCC2)C(=O)N(C)[C@H](C(=O)N(C)C)CC(=O)N1C [PP3235] | 0.21 nM | 7 nM | A (a compound having 10 or more and less than 20 is denoted as A) | A (a compound having 10 or more and less than 20 is denoted as A) | – | – | – | – | – |
| CCCO[C@@H]1C[C@H]2C(=O)NC3(CC(C)(C)C3)C(=O)N(C)[C@@H](C3CCCC3)C(=O)N(C)[C@H](C(=O)N(C)CC)CC(=O)N(C)[C@@H](COCC)C(=O)N[C@@H]([C@@H](C)CC)C(=O)N3CCC[C@H]3C(=O)N(C)[C@H]3C/C=C\CCN(C3=O)[C@@H](Cc3ccc(C(F)(F)F)cc3)C(=O)N(C)CC(=O)N[C@@H](CCc3cc(F)c(C(F)(F)F)c(F)c3)C(=O)N2C1 [PP3471] | 1.1 nM | 48.7 nM | A (a compound having 10 or more and less than 20 is denoted as A) | A (a compound having 10 or more and less than 20 is denoted as A) | – | – | – | – | – |
| CCCO[C@@H]1C[C@H]2C(=O)NC3(CC(C)(C)C3)C(=O)N(C)[C@@H](C3CCCC3)C(=O)N(C)[C@H](C(=O)N(C)CC)CC(=O)N(C)[C@@H](COCC)C(=O)N[C@@H]([C@@H](C)CC)C(=O)N(C3CC3)CC(=O)N(C)[C@H]3C/C=C\CCN(C3=O)[C@@H](Cc3ccc(C(F)(F)F)cc3)C(=O)N(C)CC(=O)N[C@@H](CCc3ccc(C(F)(F)F)c(Cl)c3)C(=O)N2C1 [PP3403] | 0.81 nM | 15.2 nM | A (a compound having 10 or more and less than 20 is denoted as A) | A (a compound having 10 or more and less than 20 is denoted as A) | – | – | – | – | – |
| CCC[C@H]1C(=O)N[C@@H]([C@@H](C)CC)C(=O)N(C)CC(=O)N(C)[C@H]2C/C=C\CCN(C2=O)[C@@H](CC2CCCCC2)C(=O)N(C)CC(=O)N[C@@H](CCc2cc(F)c(C(F)(F)F)c(F)c2)C(=O)N2C[C@H](OCC)C[C@H]2C(=O)NC2(CCC2)C(=O)N(C)[C@@H](C2CCCC2)C(=O)N(C)[C@H](C(=O)N(C)C)CC(=O)N1C [PP1464] | – | – | – | – | 0.15 nM | 32.3 nM | A (a compound having 10 or more and less than 20 is denoted as A) | A (a compound having 10 or more and less than 20 is denoted as A) | – |
| CC[C@H](C)[C@@H]1NC(=O)[C@H](CC)N(C)C(=O)C[C@@H](C(=O)N(C)C)N(C)C(=O)[C@H](C2CCCC2)N(C)C(=O)C2(CCC2)NC(=O)[C@@H]2C[C@@H](OC)CN2C(=O)[C@H](CCc2cc(F)c(C(F)(F)F)c(F)c2)NC(=O)CN(C)C(=O)[C@H](Cc2ccc(C(F)(F)F)cc2)N2CC/C=C\C[C@@H](C2=O)N(C)C(=O)CN(C)C1=O [PP1130] | – | – | – | – | 0.035 nM | 19.6 nM | A (a compound having 10 or more and less than 20 is denoted as A) | B (a compound having 3 or more and less than 10 is denoted as B) | – |
| CC[C@H](C)[C@@H]1NC(=O)[C@H](CC)N(C)C(=O)C[C@@H](C(=O)N(C)C)N(C)C(=O)[C@H](C2CCCC2)N(C)C(=O)C2(CCC2)NC(=O)[C@@H]2CCN2C(=O)[C@H](CCc2cc(F)c(C(F)(F)F)c(F)c2)NC(=O)CN(C)C(=O)[C@H](Cc2ccc(C(F)(F)F)cc2)N2CC/C=C\C[C@@H](C2=O)N(C)C(=O)CN(C)C1=O [PP1139] | – | – | – | – | 0.43 nM | 297 nM | A (a compound having 10 or more and less than 20 is denoted as A) | A (a compound having 10 or more and less than 20 is denoted as A) | – |
| CCC(CC)[C@H]1C(=O)N(C)[C@H](C(=O)N(C)C)CC(=O)N(C)[C@@H](COC)C(=O)N[C@@H]([C@@H](C)CC)C(=O)N2CCC[C@H]2C(=O)N(C)[C@H]2C/C=C\CCN(C2=O)[C@@H](Cc2ccc(C(F)(F)F)cc2)C(=O)N(C)CC(=O)N[C@@H](CCc2ccc(Cl)c(Cl)c2)C(=O)N2C[C@H](OC3CCCC3)C[C@H]2C(=O)NC2(CC(C)(C)C2)C(=O)N1C [PP2651] | – | 147 nM | AA (a compound having 20 or more is denoted as AA) | A (a compound having 10 or more and less than 20 is denoted as A) | – | – | – | – | 1.9 nM |
